Assay results published in ChEMBL document CHEMBL3407440, “Monocarbonyl analogs of curcumin inhibit growth of antibiotic sensitive and resistant strains of Mycobacterium tuberculosis” (Eur J Med Chem, 2015).

Tested on: Mycobacterium tuberculosis
Assay: Antituberculosis activity against rifampicin-resistant Mycobacterium tuberculosis H37Rv assessed as growth inhibition after 72 hrs by liquid culture assay
Assay type: functional, organism-based

Row | SMILES | IC50
1 | CN1C/C(=C\c2ccccn2)C(=O)/C(=C/c2ccccn2)C1 | 7 µM
2 | O=C1/C(=C/c2ccccc2F)CNC/C1=C\c1ccccc1F | 20 µM
